Reference: US20130150350A1, “Derivatives of 1-Phenyl-1,5-Dihydro-Benzo[B] [1,4]Diazepine-2,4-Dione as Inhibitors of HIV Replication” (BOEHRINGER INGELHEIM INTERNATIONAL GMBH, priority 2010, published 2013)
Like-named read-outs stand apart in the source and are kept apart here.

Columns and labels:
[1] = molecular target: T1, HIV-1NL4-3 CA-NC protein (SEQ ID NO: 2) (Human immunodeficiency virus type 1 group M subtype B, UniProt P12493, G226D); experiment: Immobilized capsid assembly assay (CAA); type: biochemical
T1 construct: HIV-1NL4-3 CA-NC, Gag residues 133-432; initiator Met (start codon introduced by PCR primer) (N); made in house; host or cells: E. coli BL21(DE3), pET-11a
Source text: (§1) SEQ ID NO: 1 is a nucleic acid of 900 base pairs encoding HIV-1NL4-3 CA-NC, Gag residues 133-432, having the CA G94D mutation (SEQ ID NO: 2). SEQ ID NO: 1, is transferred to pET-11a expression vector (Novagen™) by PCR amplification using primers that introduce an NdeI site and a start codon at the 5′-end and a BamHI site and a stop codon at the 3′-end. Resistance mutations in CA were identified by passage of the HIV-1 virus in the presence of compounds of the invention, namely V27A/I, K30R, S33G, V36T, T58I, G61E, G208A/R, E213G, K30R/T58I, K30R/G208R, V36T/G208R, S33G/T58I, S33G/G208R and T58I/G208R, all numbered with reference to SEQ ID NO: 2,. These resistance mutations may be introduced in the expression vector using the QuikChange® II Site-Directed Mutagenesis Kit (Stratagene) according to the manufacturer's instructions. SEQ ID NOS: 2 is expressed in the BL21(DE3) E. coli cells (Novagen™). Briefly, LB media is inoculated with overnight pre-cultures and grown at 37° C. until mid log-phase (Abs600 ˜0.6), protein expression is induced by addition of 0.5-1 mM isopropyl-β,D-thiogalactopyranoside (IPTG) and carried out for 4 to 6 hours at 30° C. Cells are harvested by centrifugation and pellets are stored at −80° C. until purification.
(§2) Purification of CA-NC (SEQ ID NO: 2) is as follows: 5 to 10 g of cell paste are lysed by sonication in 40 ml of Buffer A [20 mM Tris pH 7.5; 1 μM ZnCl2; 10 mM β-mercaptoethanol] supplemented with 0.5M NaCl and Complete EDTA-free® protease inhibitors tablets (Roche). Nucleic acids and cell debris are removed by adding 0.11 volumes of 0.2 M ammonium sulfate and an equivalent volume of 10% poly-(ethyleneimine) pH 8.0, stirring the sample for 20 minutes at 4° C., followed by centrifugation at 30 000×g for 20 minutes. SEQ ID NO: 2 is recovered from the supernatant by adding 0.35 volumes of saturated ammonium sulfate solution followed by centrifugation at 10 000×g for 15 minutes. The pellet is dissolved in 10 ml of Buffer A+0.1 M NaCl and dialyzed overnight in the same buffer but at 0.05 M NaCl (Dialysis Buffer). The sample is then cleared by centrifugation and passed on a 1-ml HiTrapTMSP HP column (GE Healthcare) pre-equilibrated with Dialysis Buffer. SEQ ID NO: 2 is eluted with Buffer A+0.5 M NaCl, fractions containing the protein are pooled; concentration determination is done by Abs280 using the calculated molar extinction coefficient (E=40220 M-1 cm-1).
Reacti-Bind Neutravidin Coated black 384-well plates (Pierce Cat#15402) are washed with 80 μl/well of Buffer A (50 mM Tris pH 8.0; 350 mM NaCl; 10 μM ZnSO4; 0.0025% CHAPS (w/v); 50 μg/ml bovine serum albumin (BSA); 1 mM DTT). Immobilization of a 5′-end biotin labeled (TG)25 oligonucleotide (Integrated DNA Technology Inc.) is carried out by adding 50 μl/well of a 25 nM solution of oligonucleotide in Buffer A+5 mg/ml of BSA (Sigma™) and incubating overnight. Unbound material is removed by two 80 μl/well washes with Buffer A. Assembly reactions are performed in 60 μl/well reactions comprising test compound, 100 nM of 5′-end fluorescein labeled (TG)25 oligonucleotide (Integrated DNA Technology Inc.) and 2 μM of CA-NC protein (SEQ ID NO: 2), using Buffer A+1% DMSO. Assembly reactions are incubated for 2 hours at room temperature and non-immobilized material is removed by two successive 80 μl/well washes with Buffer A. Finally, 80 μl/well of Buffer A+0.1% sodium dodecyl sulfate (SDS) is added and incubated for 15 minutes prior to quantification of captured fluorescence on a Victor2 plate reader (PerkinElmer Life Sciences) equipped with fluorescein excitation and emission filters using the standard manufacturer's settings for fluorescein fluorescence. The amount of captured fluorescence is considered to be proportional to the level of assembly. The IC50 values for each compound are generated by fitting inhibition curves from ten-point dilution series to the following equation: […]

[2] = molecular target: T2, assembled HIV-1 capsid complexes (CA-NC protein, SEQ ID NO: 2) (Human immunodeficiency virus type 1 group M subtype B, UniProt P12493, G226D); experiment: Capsid disassembly assay (CDA); type: biochemical
T2 construct: HIV-1NL4-3 CA-NC, Gag residues 133-432; initiator Met (start codon introduced by PCR primer) (N); made in house; host or cells: E. coli BL21(DE3), pET-11a
Source text: The GAG polyprotein is the major structural protein required for HIV viral particle assembly. During the maturation process, Gag is cleaved by the viral protease and releases its four major proteins, matrix (MA), capsid (CA), nucleocapside (NC) and p6, as well as two spacer peptides termed SP1 and SP2. This triggers profound morphological changes to the viral particle as CA will reassemble to form the viral core, a structure that is essential for viral infectivity.
as §1, §2
Reacti-Bind Neutravidin Coated black 384-well plates (Pierce Cat#15402) are washed with 80 μl/well of Buffer A (50 mM Tris pH 8.0; 350 mM NaCl; 10 μM ZnSO4; 0.0025% CHAPS (w/v); 50 μg/ml BSA; 1 mM DTT). Immobilization of a 5′-end biotin labeled (TG)25 oligonucleotide (Integrated DNA Technology Inc.) is carried out by adding 50 μl/well of a 25 nM solution of oligonucleotide in Buffer A+5 mg/ml BSA and incubating overnight. Unbound material is removed by two 80 μl/well washes with Buffer A. Assembly reactions are performed in 60 μl/well reactions comprising 100 nM of 5′-end fluorescein labeled (TG)25 oligonucleotide (Integrated DNA Technology Inc.) and 2 μM of CA-NC protein (SEQ ID NO: 2), using Buffer A. Assembly reactions are incubated for 2 hours at room temperature and non-immobilized material is removed by washing 80 μl/well with Buffer A. Test compounds, serially diluted in Buffer A+0.125% dimethyl sulfoxide (DMSO), are added to the wells (60 μl/well) and incubated at room temperature for 2 hours. […]

[3] = tested on: HIV-1 replication in C8166 LTRluc cells; experiment: C8166 HIV-1 luciferase assay; type: cell-based; conditions: Human immunodeficiency virus 1, 72 h, inhibition of HIV-1 replication, moi 0.005, 3 days
Procedure: The assay used to measure inhibition of HIV replication is as described in WO 2004/050643, pages 73-75, herein incorporated by reference, with the following modifications:
Serial dilutions of HIV-1 inhibitors are prepared in complete media from DMSO stock solutions. Eleven serial dilutions of desired concentration are prepared in a 1 mL deep well titer plate (96 wells). The 12th well contains complete media with no inhibitor and serves as the positive control. All samples contain the same concentration of DMSO 0.1% DMSO). Inhibitor is added, to triplicate wells, of a 96 well tissue culture treated clear view black microtiter plate (Corning Costar catalogue #3904). The total volume per well is 200 μL of media containing the cells and inhibitor. The last row is reserved for uninfected C8166 LTRluc cells to serve as the background blank control and the first row is media alone.
Count C8166 LTRluc cells and place in a minimal volume of complete RPMI 1640 in a tissue culture flask (ex. 30×10^6 cells in 10 mL media/25 cm^2 flask). Infect cells with HIV-1 at a moi of 0.005. Incubate cells for 1.5 hours at 37° C. on a rotating rack in a 5% CO2 incubator. Resuspend cells in complete RPMI to give a final concentration of 25,000-cells/well. Add cells to wells of 96 well microtiter plate containing inhibitors. Add 25,000 uninfected C8166—LTRluc cells/well in 200 μL complete RPMI to last row for background control. Incubate cells at 37° C. in 5% CO2 incubator for 3 days.

[4] = concentration for 50% inhibition of capsid assembly, 2 μM CA-NC, 2 hours at room temperature, read-out: IC50 (μM) CAA
[5] = concentration for 50% disassembly of assembled complexes, 2 hours at room temperature, read-out: IC50 (μM) CDA

Row | Structure (SMILES) | IC50 [1, 4] [µM] | IC50 [2, 5] [µM] | EC50 [3] [µM] | IC50 [1] [µM] | IC50 [2] [µM]
1 | CCN1C(=O)N(c2ccccc2)C(=O)N(c2ccccc2)c2cc(C(F)(F)F)ccc21 [Compound 3011] | 0.63 | 0.18 | 0.6 | – | –
2 | CN1c2ccc(C(F)(F)F)cc2N(c2ccccc2)C(=O)c2c1ncn2C [Compound 5003] | 0.26 | – | 5.5 | – | –
3 | COCCNCc1ccc(Cn2cnc3c2C(=O)N(c2ccccc2)c2cc(Cl)ccc2N3C)cc1 [Compound 5026] | 0.17 | – | 0.9 | – | –
4 | CCN1C(=O)C(c2ccc(CN3CCNCC3)cc2)C(=O)N(c2ccccc2)c2cc(C(F)(F)F)ccc21 (centres unmarked) [Compound 2018] | – | – | 0.8 | 0.52 | 0.28
5 | CCN1C(=O)N(c2ccc(C(=O)O)cc2)C(=O)N(c2ccccc2)c2cc(C(F)(F)F)ccc21 [Compound 3034] | – | 0.27 | 2.6 | – | –
6 | CN1c2ccc(Cl)cc2N(c2ccccc2)C(=O)c2cn(C)nc21 [Compound 4002] | 0.71 | – | 6.9 | – | –
7 | CCN1C(=O)C(c2ccccc2)C(=O)N(c2cccs2)c2cc(C(F)(F)F)ccc21 (centres unmarked) [Compound 2003] | – | – | 2.5 | 0.81 | 0.39
8 | CCN1C(=O)C(c2cccnc2)C(=O)N(c2ccccc2)c2cc(C(F)(F)F)ccc21 (centres unmarked) [Compound 2076] | – | – | 4.1 | 1.6 | –
9 | CCN1C(=O)/C(=C/NCCOC)C(=O)N(c2ccccc2)c2cc(Cl)ccc21 [Compound 1004] | 0.47 | 0.38 | 12.7 | – | –
10 | COCCN/C=C1/C(=O)N(C)c2ccc(C(F)(F)F)cc2N(c2ccccc2)C1=O [Compound 1011] | – | – | 12 | 0.89 | 0.86
11 | CCN1C(=O)N(c2ccc(C(=O)NC[C@@H]3CCCN3CC)cc2)C(=O)N(c2ccccc2)c2cc(C(F)(F)F)ccc21 [Compound 3055] | – | 0.13 | 0.4 | – | –
12 | CCN1C(=O)C(c2cccc(-c3cccnc3)c2O)C(=O)N(c2ccccc2)c2cc(C(F)(F)F)ccc21 (centres unmarked) [Compound 2035] | – | – | 5.8 | 1.28 | –
13 | CN1C(=O)C(c2ccc(O)cc2)C(=O)N(c2ccccc2)c2cc(C(F)(F)F)ccc21 (centres unmarked) [Compound 2009] | – | – | 0.9 | 0.91 | 0.14
14 | CCN1C(=O)C2(CCc3cc(-c4ccnn4C)ccc32)C(=O)N(c2ccccc2)c2cc(C(F)(F)F)ccc21 (centres unmarked) [Compound 7012] | – | – | 0.2 | – | 0.2
15 | CCN1C(=O)N(c2ccc(CO)cc2)C(=O)N(c2ccccc2)c2cc(C(F)(F)F)ccc21 [Compound 3027] | – | 0.1 | 0.7 | – | –
16 | CCN1C(=O)C2(CCc3c2ccc(-c2cncnc2)c3OC)C(=O)N(c2ccccc2)c2cc(C(F)(F)F)ccc21 (centres unmarked) [Compound 7030] | – | – | 0.6 | – | 0.17
17 | CCN1C(=O)C2(CCc3ccccc32)C(=O)N(c2ccccc2)c2cc(C(F)(F)F)ccc21 (racemic) [Compound 7001] | – | – | 1.5 | 0.73 | 0.46
18 | CCN1c2ccc(Cl)cc2N(c2ccccc2)C(=O)c2c1ncn2C [Compound 5001] | 0.36 | – | 1.5 | – | –
19 | CN1c2ccc(Cl)cc2N(c2ccccc2)C(=O)c2cn(Cc3ccncc3)nc21 [Compound 4032] | 0.55 | – | 0.3 | – | –
20 | CN1c2ccc(Cl)cc2N(c2ccccc2)C(=O)c2scnc21 [Compound 6001] | 1 | – | 8.1 | – | –
21 | CN1c2cccc(F)c2N(c2ccccc2)C(=O)c2c1ncn2C [Compound 5005] | 0.32 | – | 0.4 | – | –
22 | CCN1C(=O)C2(C=C(C)c3cc(O)ccc32)C(=O)N(c2ccccc2)c2cc(C(F)(F)F)ccc21 (centres unmarked) [Compound 7037] | – | – | 1 | – | 0.3
23 | CN1c2ccc(Cl)cc2N(c2ccccc2)C(=O)c2c[nH]nc21 [Compound 4007] | 0.31 | – | 7.8 | – | –
